Literature values as cited in US20050154022A1, “4-aryl piperidines” (H. Lundbeck A/S, priority 2004, published 2005).

Assays:
Conditions in all cases: see Borowsky et al. (2002)
rat [1] = system: rat
rat [2] = system: rat; remark: listed apart in the source
guinea pig = system: guinea pig

Which “effect in rat forced-swim test (animal model of depression/anxiety)” value (rat [1]) does the source give for `COCC1=C(C(=O)OC)[C@H](c2ccc(F)c(F)c2)N(C(=O)NCCCN2CCC(c3cccc(NC(C)=O)c3)CC2)C(=O)N1` [SNAP-7941] here?
The value was “effects similar to clinically used antidepressants and anxiolytics”.

What about the “effect in rat social interaction test (animal model of depression/anxiety)” value (rat [2]) of the same compound?
Its value is “effects similar to clinically used antidepressants and anxiolytics”.

What about the “effect in guinea pig maternal-separation vocalization test (animal model of depression/anxiety)” value (guinea pig) of the same compound?
The value was “effects similar to clinically used antidepressants and anxiolytics”.
